This is an account of results in patent US10390553B2, “Food containing histidine and use thereof” (AJINOMOTO CO., INC., priority 2013, dated 2019).

Data set [1] deals with males feeling decrease in the sleep quality and fatigue. Nature of the data set: POMS after histidine ingestion for 14 days (crossover vs control food). Type of data set: in vivo, human. Particulars: 1.65 g L-histidine daily for 14 days vs control food; paired t-test p<0.05. The source says:
Twenty males of 45 years old to less than 65 years old, who received total evaluation of not less than 17 points in the “self-diagnosis fatigue questionnaire” (Fatigue Science Laboratory Inc.) performed in advance, felt decrease in the quality of sleep (generally PSQI≥6), and obtained fatigue factor T scores of not less than 60 points in POMS, were selected, and randomly divided into 2 groups (10 per group). A crossover test, including ingesting histidine and control food (equal volume of cellulose) each for 14 days, was performed in each group. As shown in the experiment protocol of FIG. 4A, the test subjects ingested capsules containing 1.65 g of L-histidine as a daily ingestion amount (5 capsules (hard capsule #2 WHITE OP B/C) containing 0.33 g of L-histidine alone), or control sample capsules (5 capsules containing equal volume of cellulose) for 14 days. After the completion of 14 day ingestion, a 14 day resting period was taken. After the resting period, they ingested the capsules not ingested before the resting period. […]

Data set [2] has as its system males feeling decrease in the quality of sleep and fatigue. As to the kind of experiment: Safety of histidine ingestion: general properties, hematology, blood biochemistry. Type of data set: in vivo, human. Particulars: 2 weeks continuous and single, 1.65 g. From the text:
Twenty males of 45 years old to less than 65 years old, who received total evaluation of not less than 17 points in the “self-diagnosis fatigue questionnaire” (Fatigue Science Laboratory Inc.) performed in advance, felt decrease in the quality of sleep (generally PSQI≥6), and obtained fatigue factor T scores of not less than 60 points in POMS, were selected, and randomly divided into 2 groups (10 per group). A crossover test, including ingesting histidine and control food (equal volume of cellulose) each for 14 days, was performed in each group.
As shown in the experiment protocol of FIG. 4A, the test subjects ingested capsules containing 1.65 g of L-histidine as a daily ingestion amount (5 capsules (hard capsule #2 WHITE OP B/C) containing 0.33 g of L-histidine alone), or control sample capsules (5 capsules containing equal volume of cellulose) for 14 days. After the completion of 14 day ingestion, a 14 day resting period was taken. After the resting period, they ingested the capsules not ingested before the resting period. […]

Data set [3] concerns males feeling decrease in the sleep quality and fatigue. Nature of the data set: VAS questionnaires relating to mental energy, histidine ingestion for 14 days. Particulars: 1.65 g daily for 14 days vs control food, p<0.05. Type of data set: in vivo, human. The source says: Twenty males of 45 years old to less than 65 years old, who received total evaluation of not less than 17 points in the “self-diagnosis fatigue questionnaire” (Fatigue Science Laboratory Inc.) performed in advance, felt decrease in the quality of sleep (generally PSQI≥6), and obtained fatigue factor T scores of not less than 60 points in POMS, were selected, and randomly divided into 2 groups (10 per group). A crossover test, including ingesting histidine and control food (equal volume of cellulose) each for 14 days, was performed in each group. As shown in the experiment protocol of FIG. 4A, the test subjects ingested capsules containing 1.65 g of L-histidine as a daily ingestion amount (5 capsules (hard capsule #2 WHITE OP B/C) containing 0.33 g of L-histidine alone), or control sample capsules (5 capsules containing equal volume of cellulose) for 14 days. After the completion of 14 day ingestion, a 14 day resting period was taken. After the resting period, they ingested the capsules not ingested before the resting period. On the initial day and the day after completion of the capsule ingestion period, the test subjects answered POMS and the VAS questionnaires (fatigue, depression, vague sense, drowsiness, clear thinking, motivation, attentiveness, concentration) relating to mental energy, and cognitive function measurement task CogHealth (under higher difficulty conditions by simultaneously including mental arithmetic task as well) to measure recognition. Furthermore, they answered VAS questionnaires after completion of CogHealth.

For data set [4], the system named is males feeling decrease in the quality of sleep and fatigue. As to the kind of experiment: VAS questionnaires relating to mental energy, single histidine ingestion. Type of data set: in vivo, human. Particulars: single ingestion 1.65 g. The source says:
(§1) Twenty males of 45 years old to less than 65 years old, who received total evaluation of not less than 17 points in the “self-diagnosis fatigue questionnaire” (Fatigue Science Laboratory Inc.) performed in advance, felt decrease in the quality of sleep (generally PSQI≥6), and obtained fatigue factor T scores of not less than 60 points in POMS, were selected, and randomly divided into 2 groups (10 per group). The effect of single ingestion of histidine and control food (equal volume of cellulose) was compared in each group. As shown in the experiment protocol of FIG. 5A, the test subjects took the same meals for 3 days before the experiment, fasted for 10 to 14 hr, and ingested capsules containing 1.65 g of L-histidine as a single ingestion amount (5 capsules (hard capsule #2 WHITE OP B/C) containing 0.33 g of L-histidine alone), or control sample capsules (5 capsules containing equal volume of cellulose). Before and 1 hr after ingestion of capsules, the test subjects answered the VAS questionnaires (fatigue, depression, vague sense, drowsiness, clear thinking, motivation, attentiveness, concentration) relating to mental energy, and cognitive function measurement task CogHealth (under conditions with higher difficulty by simultaneously including mental arithmetic task as well) to measure recognition. Furthermore, they answered VAS questionnaires after completion of CogHealth.

The test system is the same in data set [5]. Nature of the data set: Cognitive function measurement task CogHealth, single histidine ingestion. Type of data set: in vivo, human. The settings on record: single ingestion 1.65 g, 1 hr after ingestion, vs control food.
From the text: as §1

In data set [6] the test system is CD2F1 mice after burden of insufficient sleep. As to the kind of experiment: Locomotor activities under novel environment after burden of insufficient sleep, single histidine administration. Format: in vivo, mouse. The settings on record: single oral dose 1.2 g/kg body weight at ZT14; measured for 3 hr from ZT15; SD+His vs SD+solvent. The source says:
Using CD2F1 mice (9-10-week-old) and as shown in the experiment protocol of FIG. 2A, a burden of insufficient sleep is applied to sleep disorder group (SD) for one day. The burden was released at ZT6, and the mice were placed back in the home cage and allowed to rest for 6 hr. The control group (CON) was reared without burden in the home cage. A 1.2 w/v % L-histidine solution was orally administered to a histidine administration group (SD+His) at 2 hr after the start of the dark phase after burden of insufficient sleep (ZT14), to achieve an L-histidine dose of 1.2 g/kg body weight. A solvent (water) was orally administered to the solvent administration group (SD+solvent) and the control group (CON). The locomotor activities under novel environment were measured for 3 hr from 3 hr after the start of the dark phase (ZT15).

The mark [7] stands for this setting: before cognitive functioning test.
The mark [8] stands for this setting: 1 hr after ingestion, before cognitive functioning test, p<0.05.

Regarding `N[C@@H](Cc1c[nH]cn1)C(=O)O` [histidine, L-histidine], the “fatigue factor scores of POMS” value in data set [1] is recorded as “significantly decreased”. In addition, the “variation in general properties, hematology, and blood biochemistry” value in data set [2] is recorded as “did not show problematic variation”. For the same compound, in data set [3] (after completion of CogHealth), the “VAS sense of attentiveness” value is listed as “significantly increased”, the “VAS sense of depression” value is listed as “significantly decreased” and the “VAS sense of motivation” value is on record as “significantly increased”. In addition, in data set [3] (setting [7]), the “VAS sense of attentiveness” value is “significantly increased”, the “VAS sense of clear thinking” value is listed as “significantly increased” and the “VAS sense of motivation” value was “significantly increased”. The “VAS sense of concentration” value in data set [4] (1 hr after ingestion, before cognitive functioning test) was “tended to increase”. In data set [4] (setting [8]), the “VAS sense of attentiveness” value was “significantly increased” and the “VAS sense of clear thinking” value was “significantly increased”. Further, in data set [4] (after completion of CogHealth), the “VAS sense of concentration” value is recorded as “tended to increase” and the “VAS sense of depression” value is given as “tended to decrease”. Further, the “VAS sense of vagueness” value in data set [4] (after completion of CogHealth, p<0.05) is “significantly decreased”. In data set [5], the “indices relating to cognition” value is “did not show a significant change” and the “work time in 5 kinds of brain function measurement indices” value is “shortened”. In addition, the “locomotor activities under novel environment” value in data set [6] is “tendency of suppression of a decrease in the locomotor activities”.
